The assay addresses Nluc-H1R (Homo sapiens, UniProt P35367). The experiment in a line: NanoBRET competition binding assay (displacement of 1) on Nluc-H1R expressing HEK293T cells. The note with it: displacement of 1 (25 nM, KD = 8 nM), whole HEK293T cells, Cheng–Prusoff; for pKi: mean ± SEM, three experiments. Background: Bioluminescence resonance energy transfer reports proximity on the nanometre scale.

This passage reports Ki and pKi results from PMC9234962, “Optimization of Peptide Linker-Based Fluorescent Ligands for the Histamine H1 Receptor” (Journal of Medicinal Chemistry, 2022).

Square brackets hold non-standard residues; d marks the D form. Peptide text beside a SMILES is read from it. * marks the point of attachment. Propanoyl(3-Pip(4-O-2-BnPh)) = O=C(CCN1CCC(Oc2ccccc2Cc2ccccc2)CC1)*

Chain of Nluc-H1R (P35367 whole entry): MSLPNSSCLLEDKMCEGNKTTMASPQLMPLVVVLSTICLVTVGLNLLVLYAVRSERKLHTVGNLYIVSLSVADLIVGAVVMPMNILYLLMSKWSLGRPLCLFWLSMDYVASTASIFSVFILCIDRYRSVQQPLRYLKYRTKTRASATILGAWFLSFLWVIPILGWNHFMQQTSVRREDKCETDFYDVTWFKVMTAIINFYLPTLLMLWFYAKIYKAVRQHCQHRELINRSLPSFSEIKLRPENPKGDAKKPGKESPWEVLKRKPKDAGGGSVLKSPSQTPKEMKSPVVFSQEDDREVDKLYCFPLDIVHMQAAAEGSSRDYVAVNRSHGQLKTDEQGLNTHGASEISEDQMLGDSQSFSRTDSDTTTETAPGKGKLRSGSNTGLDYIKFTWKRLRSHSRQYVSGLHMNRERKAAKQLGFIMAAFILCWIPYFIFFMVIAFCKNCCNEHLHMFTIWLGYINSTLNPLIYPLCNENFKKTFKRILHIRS

The term Ki denotes a measure of affinity in units of concentration, obtained from inhibition or displacement. The low end stands for higher affinity, the high end for lower affinity. For orientation: pKi means the Ki on a negative log10 scale, so that one unit is a factor of ten. A low value points to a high Ki. Turning to `CC(C)[C@H](NC(=O)CCN1CCC(Oc2ccccc2Cc2ccccc2)CC1)C(=O)N[C@@H](CCCCN)C(=O)N[C@@H](C)C(=O)N[C@H](Cc1ccccc1)C(N)=O` [Compound 9h, (S)-6-Amino-N-((S)-1-(((R)-1-amino-1-oxo-3-phenylpropan-2-yl)amino)-1-oxopropan-2-yl)-2-((S)-2-(3-(4-(2-benzylphenoxy)piperidin-1-yl)propanamido)-3-methylbutanamido)hexanamide] ({Propanoyl(3-Pip(4-O-2-BnPh))}-VKA[dF]-NH2), the affinity corresponds to a Ki of 2400 nM and the pKi was determined as 5.62 ± 0.06.

`CC(C)[C@H](NC(=O)CCN1CCC(Oc2ccccc2Cc2ccccc2)CC1)C(=O)N[C@@H](CO)C(=O)N[C@@H](CO)C(=O)N[C@H](Cc1ccccc1)C(N)=O` [Compound 10e, (S)-N-((S)-1-(((S)-1-(((R)-1-Amino-1-oxo-3-phenylpropan-2-yl)amino)-3-hydroxy-1-oxopropan-2-yl)amino)-3-hydroxy-1-oxopropan-2-yl)-2-(3-(4-(2-benzylphenoxy)piperidin-1-yl)propanamido)-3-methylbutanamide] ({Propanoyl(3-Pip(4-O-2-BnPh))}-VSS[dF]-NH2) displayed a Ki of 339 nM and a pKi of 6.47 ± 0.03.

Regarding `C[C@H](NC(=O)[C@H](C)NC(=O)[C@H](Cc1ccccc1)NC(=O)CCN1CCC(Oc2ccccc2Cc2ccccc2)CC1)C(=O)N[C@H](Cc1ccccc1)C(N)=O` [Compound 8d, (S)-N-((S)-1-(((S)-1-(((R)-1-Amino-1-oxo-3-phenylpropan-2-yl)amino)-1-oxopropan-2-yl)amino)-1-oxopropan-2-yl)-2-(3-(4-(2-benzylphenoxy)piperidin-1-yl)propanamido)-3-phenylpropanamide] ({Propanoyl(3-Pip(4-O-2-BnPh))}-FAA[dF]-NH2), the inhibition constant (Ki) came out at 1320 nM and the negative-log Ki (pKi) turned out to be 5.88 ± 0.21.

On to `CC(C)[C@H](NC(=O)CCN1CCC(Oc2ccccc2Cc2ccccc2)CC1)C(=O)N[C@@H](CO)C(=O)N[C@@H](Cc1cnc[nH]1)C(=O)N[C@H](Cc1ccccc1)C(N)=O` [Compound 10g, (S)-N-((S)-1-(((S)-1-(((R)-1-Amino-1-oxo-3-phenylpropan-2-yl)amino)-3-(1H-imidazol-4-yl)-1-oxopropan-2-yl)amino)-3-hydroxy-1-oxopropan-2-yl)-2-(3-(4-(2-benzylphenoxy)piperidin-1-yl)propanamido)-3-methylbutanamide] ({Propanoyl(3-Pip(4-O-2-BnPh))}-VSH[dF]-NH2), for which the Ki was determined as 126 nM and the pKi is on record as 6.90 ± 0.04.

In turn, `CC(C)[C@H](NC(=O)CCN1CCC(Oc2ccccc2Cc2ccccc2)CC1)C(=O)N[C@@H](C)C(=O)N[C@@H](C)C(=O)N[C@H](Cc1ccccc1)C(N)=O` [Compound 8c, (S)-N-((S)-1-(((S)-1-(((R)-1-Amino-1-oxo-3-phenylpropan-2-yl)amino)-1-oxopropan-2-yl)amino)-1-oxopropan-2-yl)-2-(3-(4-(2-benzylphenoxy)piperidin-1-yl)propanamido)-3-methylbutanamide] ({Propanoyl(3-Pip(4-O-2-BnPh))}-VAA[dF]-NH2) yielded a Ki of 158 nM and a pKi of 6.80 ± 0.12.

`CC(C)[C@H](NC(=O)CCN1CCC(Oc2ccccc2Cc2ccccc2)CC1)C(=O)N[C@@H](CO)C(=O)N[C@@H](Cc1ccccc1)C(=O)N[C@H](Cc1ccccc1)C(N)=O` [Compound 10c, (S)-N-((S)-1-(((S)-1-(((R)-1-Amino-1-oxo-3-phenylpropan-2-yl)amino)-1-oxo-3-phenylpropan-2-yl)amino)-3-hydroxy-1-oxopropan-2-yl)-2-(3-(4-(2-benzylphenoxy)piperidin-1-yl)propanamido)-3-methylbutanamide] ({Propanoyl(3-Pip(4-O-2-BnPh))}-VSF[dF]-NH2) registered a Ki of 110 nM and a pKi of 6.96 ± 0.02.

In turn, `CC(C)[C@H](NC(=O)CCN1CCC(Oc2ccccc2Cc2ccccc2)CC1)C(=O)N[C@@H](CC(N)=O)C(=O)N[C@@H](C)C(=O)N[C@H](Cc1ccccc1)C(N)=O` [Compound 9f, (S)-N1-((S)-1-(((R)-1-Amino-1-oxo-3-phenylpropan-2-yl)amino)-1-oxopropan-2-yl)-2-((S)-2-(3-(4-(2-benzylphenoxy)piperidin-1-yl)propanamido)-3-methylbutanamido)succinamide] ({Propanoyl(3-Pip(4-O-2-BnPh))}-VNA[dF]-NH2) displayed a Ki of 832 nM and a pKi of 6.08 ± 0.03.

For `CC(C)[C@H](NC(=O)CCN1CCC(Oc2ccccc2Cc2ccccc2)CC1)C(=O)N[C@@H](CO)C(=O)N[C@@H](Cc1ccc(O)cc1)C(=O)N[C@H](Cc1ccccc1)C(N)=O` [Compound 10d, (S)-N-((S)-1-(((S)-1-(((R)-1-Amino-1-oxo-3-phenylpropan-2-yl)amino)-3-(4-hydroxyphenyl)-1-oxopropan-2-yl)amino)-3-hydroxy-1-oxopropan-2-yl)-2-(3-(4-(2-benzylphenoxy)piperidin-1-yl)propanamido)-3-methylbutanamide] ({Propanoyl(3-Pip(4-O-2-BnPh))}-VSY[dF]-NH2), the Ki is 95 nM and the pKi is 7.02 ± 0.08.

In turn, `C[C@H](NC(=O)CNC(=O)CCN1CCC(Oc2ccccc2Cc2ccccc2)CC1)C(=O)N[C@@H](C)C(=O)N[C@H](Cc1ccccc1)C(N)=O` [Compound 8b, (S)-N-((R)-1-Amino-1-oxo-3-phenylpropan-2-yl)-2-((S)-2-(2-(3-(4-(2-benzylphenoxy)piperidin-1-yl)propanamido)acetamido)propanamido)propanamide] ({Propanoyl(3-Pip(4-O-2-BnPh))}-GAA[dF]-NH2) showed a Ki of 513 nM and a pKi of 6.29 ± 0.21.

As to `CC(C)[C@H](NC(=O)CCN1CCC(Oc2ccccc2Cc2ccccc2)CC1)C(=O)NCC(=O)N[C@@H](C)C(=O)N[C@H](Cc1ccccc1)C(N)=O` [Compound 9a, (S)-N-(2-(((S)-1-(((R)-1-Amino-1-oxo-3-phenylpropan-2-yl)amino)-1-oxopropan-2-yl)amino)-2-oxoethyl)-2-(3-(4-(2-benzylphenoxy)piperidin-1-yl)propanamido)-3-methylbutanamide] ({Propanoyl(3-Pip(4-O-2-BnPh))}-VGA[dF]-NH2), affinity was put at a Ki of 501 nM and the negative-log Ki (pKi) came to 6.30 ± 0.07.

Regarding `C[C@H](NC(=O)[C@H](C)NC(=O)[C@H](Cc1ccc(O)cc1)NC(=O)CCN1CCC(Oc2ccccc2Cc2ccccc2)CC1)C(=O)N[C@H](Cc1ccccc1)C(N)=O` [Compound 8e, (S)-N-((S)-1-(((S)-1-(((R)-1-Amino-1-oxo-3-phenylpropan-2-yl)amino)-1-oxopropan-2-yl)amino)-1-oxopropan-2-yl)-2-(3-(4-(2-benzylphenoxy)piperidin-1-yl)propanamido)-3-(4-hydroxyphenyl)propanamide] ({Propanoyl(3-Pip(4-O-2-BnPh))}-YAA[dF]-NH2), affinity was put at a Ki of 1180 nM and the pKi is listed as 5.93 ± 0.17.

On to `CC(C)[C@H](NC(=O)CCN1CCC(Oc2ccccc2Cc2ccccc2)CC1)C(=O)N[C@H](C(=O)N[C@@H](C)C(=O)N[C@H](Cc1ccccc1)C(N)=O)C(C)C` [Compound 9b, (S)-N-((S)-1-(((R)-1-Amino-1-oxo-3-phenylpropan-2-yl)amino)-1-oxopropan-2-yl)-2-((S)-2-(3-(4-(2-benzylphenoxy)piperidin-1-yl)propanamido)-3-methylbutanamido)-3-methylbutanamide] ({Propanoyl(3-Pip(4-O-2-BnPh))}-VVA[dF]-NH2), for which the inhibition constant (Ki) came to 372 nM and the pKi turned out to be 6.43 ± 0.06.

`C[C@H](NC(=O)[C@H](C)NC(=O)[C@H](CC(=O)O)NC(=O)CCN1CCC(Oc2ccccc2Cc2ccccc2)CC1)C(=O)N[C@H](Cc1ccccc1)C(N)=O` [Compound 8j, (S)-4-(((S)-1-(((S)-1-(((R)-1-Amino-1-oxo-3-phenylpropan-2-yl)amino)-1-oxopropan-2-yl)amino)-1-oxopropan-2-yl)amino)-3-(3-(4-(2-benzylphenoxy)piperidin-1-yl)propanamido)-4-oxobutanoic Acid] ({Propanoyl(3-Pip(4-O-2-BnPh))}-DAA[dF]-NH2) yielded a Ki of 1020 nM and a negative-log Ki (pKi) of 5.99 ± 0.24.

`CC(C)[C@H](NC(=O)CCN1CCC(Oc2ccccc2Cc2ccccc2)CC1)C(=O)N[C@@H](Cc1ccc(O)cc1)C(=O)N[C@@H](C)C(=O)N[C@H](Cc1ccccc1)C(N)=O` [Compound 9d, (S)-N-((S)-1-(((S)-1-(((R)-1-Amino-1-oxo-3-phenylpropan-2-yl)amino)-1-oxopropan-2-yl)amino)-3-(4-hydroxyphenyl)-1-oxopropan-2-yl)-2-(3-(4-(2-benzylphenoxy)-piperidin-1-yl)propanamido)-3-methylbutanamide] ({Propanoyl(3-Pip(4-O-2-BnPh))}-VYA[dF]-NH2): the affinity corresponds to a Ki of 437 nM and the pKi is 6.36 ± 0.04.

`CC(C)[C@H](NC(=O)CCN1CCC(Oc2ccccc2Cc2ccccc2)CC1)C(=O)N[C@@H](CO)C(=O)N[C@@H](CC(N)=O)C(=O)N[C@H](Cc1ccccc1)C(N)=O` [Compound 10f, (S)-N1-((R)-1-Amino-1-oxo-3-phenylpropan-2-yl)-2-((S)-2-((S)-2-(3-(4-(2-benzylphenoxy)piperidin-1-yl)propanamido)-3-methylbutanamido)-3-hydroxypropanamido)succinamide] ({Propanoyl(3-Pip(4-O-2-BnPh))}-VSN[dF]-NH2) returned an inhibition constant (Ki) of 95 nM and a pKi of 7.02 ± 0.08.

Molecule `CC(C)[C@H](NC(=O)CCN1CCC(Oc2ccccc2Cc2ccccc2)CC1)C(=O)N[C@@H](CO)C(=O)N[C@@H](CC(=O)O)C(=O)N[C@H](Cc1ccccc1)C(N)=O` [Compound 10i, (S)-4-(((R)-1-Amino-1-oxo-3-phenylpropan-2-yl)amino)-3-((S)-2-((S)-2-(3-(4-(2-benzylphenoxy)piperidin-1-yl)propanamido)-3-methylbutanamido)-3-hydroxypropanamido)-4-oxobutanoic Acid] ({Propanoyl(3-Pip(4-O-2-BnPh))}-VSD[dF]-NH2) returned a Ki of 174 nM and a pKi of 6.76 ± 0.04.
